From publication PMC3969223, “Characterization of WZ4003 and HTH-01-015 as selective inhibitors of the LKB1-tumour-suppressor-activated NUAK kinases” (Biochemical Journal, 2013)

Assays:
Test in all cases: Kinase profiling
Type in all cases: biochemical
Conditions in all cases: 0.1 or 1 μM inhibitor; mean of triplicate
JNK3 = JNK3 (Homo sapiens, UniProt P53779)
In short: (§1)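 140-kinase in vitro panel; compound 0.1 or 1 μM; triplicate reactions. Output given as remaining activity (% of DMSO control) ±S.D.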

ERK8 = ERK8 (Homo sapiens, UniProt Q8TD08)
In short: as §1

PLK1 = PLK1 (Homo sapiens, UniProt P53350)
CDK2-Cyclin A = CDK2-Cyclin A (Homo sapiens, UniProt P24941)
In short: as §1

ZAP70 = ZAP70 (Homo sapiens, UniProt P43403)
Sequence of ZAP70 (P43403 whole entry): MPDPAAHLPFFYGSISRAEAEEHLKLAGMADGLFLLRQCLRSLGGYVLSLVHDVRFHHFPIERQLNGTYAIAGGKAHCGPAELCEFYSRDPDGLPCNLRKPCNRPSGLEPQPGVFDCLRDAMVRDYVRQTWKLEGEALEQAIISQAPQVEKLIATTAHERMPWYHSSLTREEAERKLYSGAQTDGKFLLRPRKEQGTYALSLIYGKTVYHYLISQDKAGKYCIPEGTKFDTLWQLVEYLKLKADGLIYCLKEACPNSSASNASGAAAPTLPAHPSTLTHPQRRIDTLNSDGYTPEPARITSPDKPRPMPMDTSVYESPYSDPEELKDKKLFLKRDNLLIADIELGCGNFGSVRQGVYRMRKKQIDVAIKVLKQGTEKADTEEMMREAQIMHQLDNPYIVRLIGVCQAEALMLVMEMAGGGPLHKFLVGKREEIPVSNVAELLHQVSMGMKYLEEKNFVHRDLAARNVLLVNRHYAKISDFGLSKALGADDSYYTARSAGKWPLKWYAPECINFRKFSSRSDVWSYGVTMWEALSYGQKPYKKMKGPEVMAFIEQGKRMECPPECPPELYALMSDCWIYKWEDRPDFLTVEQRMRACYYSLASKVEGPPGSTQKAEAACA
In short: as §1

OSR1 = OSR1 (Homo sapiens, UniProt O95747)
In short: as §1

PKD1 = PKD1 (Homo sapiens, UniProt Q15139)
Sequence of PKD1 (Q15139 whole entry): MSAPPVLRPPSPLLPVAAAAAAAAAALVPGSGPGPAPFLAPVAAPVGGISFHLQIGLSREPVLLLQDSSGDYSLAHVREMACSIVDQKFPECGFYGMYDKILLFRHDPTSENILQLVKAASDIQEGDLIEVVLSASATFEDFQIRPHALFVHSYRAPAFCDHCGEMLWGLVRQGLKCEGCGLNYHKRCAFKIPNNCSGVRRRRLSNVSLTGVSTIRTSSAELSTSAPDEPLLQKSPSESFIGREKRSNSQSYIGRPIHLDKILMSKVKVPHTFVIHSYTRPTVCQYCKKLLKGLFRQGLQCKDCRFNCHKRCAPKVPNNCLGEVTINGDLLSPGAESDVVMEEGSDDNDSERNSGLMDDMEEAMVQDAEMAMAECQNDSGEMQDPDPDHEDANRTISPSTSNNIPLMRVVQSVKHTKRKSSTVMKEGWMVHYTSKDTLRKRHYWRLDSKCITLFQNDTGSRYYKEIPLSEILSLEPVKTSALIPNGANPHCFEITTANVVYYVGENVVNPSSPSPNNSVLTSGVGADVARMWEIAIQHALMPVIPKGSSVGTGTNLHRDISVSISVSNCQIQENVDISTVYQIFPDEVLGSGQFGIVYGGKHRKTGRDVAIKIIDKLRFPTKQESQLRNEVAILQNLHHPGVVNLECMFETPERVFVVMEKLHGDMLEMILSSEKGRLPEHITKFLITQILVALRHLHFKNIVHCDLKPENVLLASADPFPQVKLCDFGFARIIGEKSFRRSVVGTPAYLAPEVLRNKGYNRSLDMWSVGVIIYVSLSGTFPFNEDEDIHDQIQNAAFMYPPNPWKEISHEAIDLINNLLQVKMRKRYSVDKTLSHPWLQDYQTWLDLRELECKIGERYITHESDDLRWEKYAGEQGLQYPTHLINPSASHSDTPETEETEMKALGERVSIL
In short: as §1

EPH-A2 = EPH-A2 (Homo sapiens, UniProt P29317)
Sequence of EPH-A2 (P29317 24-976): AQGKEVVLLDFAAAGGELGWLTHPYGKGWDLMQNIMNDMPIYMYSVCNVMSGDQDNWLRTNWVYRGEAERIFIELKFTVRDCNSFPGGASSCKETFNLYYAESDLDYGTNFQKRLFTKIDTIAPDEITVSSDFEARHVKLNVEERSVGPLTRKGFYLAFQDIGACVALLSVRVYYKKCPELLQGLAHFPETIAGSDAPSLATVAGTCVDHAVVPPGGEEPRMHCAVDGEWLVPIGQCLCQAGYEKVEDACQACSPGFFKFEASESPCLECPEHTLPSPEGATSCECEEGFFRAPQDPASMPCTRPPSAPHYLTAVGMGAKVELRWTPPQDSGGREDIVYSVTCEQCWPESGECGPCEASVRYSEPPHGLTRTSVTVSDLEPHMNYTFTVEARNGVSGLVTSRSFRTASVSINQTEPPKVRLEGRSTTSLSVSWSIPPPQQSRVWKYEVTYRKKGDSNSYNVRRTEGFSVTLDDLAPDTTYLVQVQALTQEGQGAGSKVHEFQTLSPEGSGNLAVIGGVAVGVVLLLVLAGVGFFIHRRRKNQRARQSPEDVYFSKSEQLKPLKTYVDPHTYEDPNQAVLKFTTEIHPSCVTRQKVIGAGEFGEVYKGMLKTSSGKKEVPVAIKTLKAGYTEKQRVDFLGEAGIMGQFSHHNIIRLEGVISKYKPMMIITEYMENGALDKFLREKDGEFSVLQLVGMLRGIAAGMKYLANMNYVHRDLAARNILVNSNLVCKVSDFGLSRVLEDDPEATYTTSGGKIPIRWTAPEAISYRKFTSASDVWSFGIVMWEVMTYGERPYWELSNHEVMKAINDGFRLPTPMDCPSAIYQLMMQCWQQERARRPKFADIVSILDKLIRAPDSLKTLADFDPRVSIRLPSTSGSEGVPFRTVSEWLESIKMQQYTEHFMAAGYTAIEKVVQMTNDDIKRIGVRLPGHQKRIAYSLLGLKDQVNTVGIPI
In short: as §1

TSSK1 = TSSK1 (Homo sapiens, UniProt Q9BXA7)
Sequence of TSSK1 (Q9BXA7 whole entry): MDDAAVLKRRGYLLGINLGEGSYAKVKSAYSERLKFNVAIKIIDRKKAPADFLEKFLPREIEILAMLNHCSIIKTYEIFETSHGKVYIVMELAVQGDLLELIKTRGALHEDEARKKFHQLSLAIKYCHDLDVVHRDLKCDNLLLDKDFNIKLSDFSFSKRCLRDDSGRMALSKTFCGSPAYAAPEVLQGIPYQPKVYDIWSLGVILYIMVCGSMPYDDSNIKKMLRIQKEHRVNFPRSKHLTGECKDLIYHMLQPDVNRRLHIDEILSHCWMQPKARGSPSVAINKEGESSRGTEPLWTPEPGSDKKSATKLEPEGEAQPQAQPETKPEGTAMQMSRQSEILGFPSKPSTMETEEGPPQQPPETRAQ

Lck = Lck (Homo sapiens, UniProt P06239)
In short: as §1

PKA = PKA (Homo sapiens, UniProt P17612)
In short: as §1

BRK = BRK (Homo sapiens, UniProt Q13882)
In short: as §1

DYRK2 = DYRK2 (Homo sapiens, UniProt Q92630)
In short: as §1

PRK2 = PRK2 (Homo sapiens, UniProt Q16513)
Sequence of PRK2 (Q16513 whole entry): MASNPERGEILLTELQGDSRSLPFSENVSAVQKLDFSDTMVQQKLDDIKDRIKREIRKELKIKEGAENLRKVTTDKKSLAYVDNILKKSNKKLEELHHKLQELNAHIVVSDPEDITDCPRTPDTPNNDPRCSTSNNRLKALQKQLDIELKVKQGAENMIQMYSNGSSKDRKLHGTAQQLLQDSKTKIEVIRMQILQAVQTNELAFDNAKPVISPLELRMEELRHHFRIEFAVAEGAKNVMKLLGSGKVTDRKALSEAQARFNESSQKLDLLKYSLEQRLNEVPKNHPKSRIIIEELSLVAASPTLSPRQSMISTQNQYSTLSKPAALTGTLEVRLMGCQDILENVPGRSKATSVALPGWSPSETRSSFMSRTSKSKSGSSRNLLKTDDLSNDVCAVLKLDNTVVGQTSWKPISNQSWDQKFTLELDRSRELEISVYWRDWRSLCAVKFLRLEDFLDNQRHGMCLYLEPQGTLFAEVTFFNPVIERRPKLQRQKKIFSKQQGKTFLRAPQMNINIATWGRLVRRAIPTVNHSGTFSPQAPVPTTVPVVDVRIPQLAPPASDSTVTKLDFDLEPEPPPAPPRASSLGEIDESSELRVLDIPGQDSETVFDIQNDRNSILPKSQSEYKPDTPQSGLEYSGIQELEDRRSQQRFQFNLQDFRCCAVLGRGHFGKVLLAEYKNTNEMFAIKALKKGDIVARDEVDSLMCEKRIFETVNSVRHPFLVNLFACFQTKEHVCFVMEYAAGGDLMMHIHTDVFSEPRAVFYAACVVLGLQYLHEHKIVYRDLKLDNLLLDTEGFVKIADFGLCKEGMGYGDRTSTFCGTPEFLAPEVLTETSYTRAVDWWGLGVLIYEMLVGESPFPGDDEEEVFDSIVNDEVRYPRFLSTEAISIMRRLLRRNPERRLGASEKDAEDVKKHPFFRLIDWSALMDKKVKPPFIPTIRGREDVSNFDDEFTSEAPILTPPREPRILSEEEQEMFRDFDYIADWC

PKCα = PKCα (Homo sapiens, UniProt P17252)
In short: as §1

PAK5 = PAK5 (Homo sapiens, UniProt Q9P286)
In short: as §1

Sequence of JNK3 (P53779 whole entry): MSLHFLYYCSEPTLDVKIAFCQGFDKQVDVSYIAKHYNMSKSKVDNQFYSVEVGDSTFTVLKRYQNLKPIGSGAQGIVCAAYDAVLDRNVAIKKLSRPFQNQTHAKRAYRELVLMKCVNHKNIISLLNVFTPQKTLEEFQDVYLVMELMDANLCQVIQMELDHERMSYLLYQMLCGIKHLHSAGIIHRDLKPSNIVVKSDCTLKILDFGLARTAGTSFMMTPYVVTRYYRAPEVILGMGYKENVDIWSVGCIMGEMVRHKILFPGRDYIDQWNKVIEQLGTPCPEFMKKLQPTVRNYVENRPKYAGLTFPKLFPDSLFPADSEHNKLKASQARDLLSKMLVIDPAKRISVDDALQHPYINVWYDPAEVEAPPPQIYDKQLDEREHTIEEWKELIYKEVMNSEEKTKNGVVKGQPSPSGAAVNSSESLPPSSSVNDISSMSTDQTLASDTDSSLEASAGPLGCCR

Cc1nc(Nc2cnn(C3CCNCC3)c2)nc2c1N(C)C(=O)c1cc3ccccc3cc1N2C [HTH-01-015]
JNK3 activity, percentage of DMSO control (JNK3): 101 percentage
ERK8 activity, percentage of DMSO control (ERK8): 98 percentage
PLK1 activity, percentage of DMSO control (PLK1): 98 percentage
CDK2-Cyclin A activity, percentage of DMSO control (CDK2-Cyclin A): 96 percentage
ZAP70 activity, percentage of DMSO control (ZAP70): 103 percentage
OSR1 activity, percentage of DMSO control (OSR1): 107 percentage
PKD1 activity, percentage of DMSO control (PKD1): 94 percentage
EPH-A2 activity, percentage of DMSO control (EPH-A2): 84 percentage
TSSK1 activity, percentage of DMSO control (TSSK1): 95 percentage
Lck activity, percentage of DMSO control (Lck): 90 percentage
PKA activity, percentage of DMSO control (PKA): 101 percentage
BRK activity, percentage of DMSO control (BRK): 96 percentage
DYRK2 activity, percentage of DMSO control (DYRK2): 113 percentage
PRK2 activity, percentage of DMSO control (PRK2): 112 percentage
PKCα activity, percentage of DMSO control (PKCα): 117 percentage
PAK5 activity, percentage of DMSO control (PAK5): 95 percentage
